Values after ≈ are worked out from the molar mass of the structure shown.
Tests used:
[1] = test system: RSV respiratory syncytial virus (Along strain); assay: microbe, parasite or virus in culture; type: cell-based
Procedure: And then sucked it into a 37° C., 5% CO2 incubator to digest.
3) Each T150 was suspended in 10 to 15 mL culture medium, 0.1 mL was taken and then diluted twice with trypan blue solution.
2) CCK-8 (Dojindo-CK04-20, 6 μL/well) was added to 384 well plates with Multidrop® automatic dispenser.
4) The data were analyzed.

[2] = test system: Hep2 cells; assay: RSV long CPE assay, CC50 (in vitro toxicity); type: cell-based; conditions: conclusion from the CPE assay CC50
Procedure: (§1) RSV long CPE assay Experimental Purpose: The EC50 and CC50 values of anti-RSV respiratory syncytial virus compounds were detected by cytopathology. Experimental Materials: Cell Line: Hep2 Experimental Procedures and Methods: a) Cell Inoculation (Hep2 cell) 1) The cell culture medium was removed and washed with 10 mL of PBS; 2) The preheated trypsin was added to the cleaned culture flask and rotating the flask to allow the trypsin to uniformly cover the culture flask. And then sucked it into a 37° C., 5% CO2 incubator to digest. 3) Each T150 was suspended in 10 to 15 mL culture medium, 0.1 mL was taken and then diluted twice with trypan blue solution. […] The cells were centrifuged (300 rpm) and the cells were adhered to the wall and placed in a 37° C., 5% CO2 incubator overnight. b) Compound addition: 1) The compound dissolved in 100% DMSO was diluted in a half logarithm and added to the cell plate using an Echo liquid handler. To ensure that the final concentration of DMSO was 1%; [table] […] 2) CCK-8 (Dojindo-CK04-20, 6 μL/well) was added to 384 well plates with Multidrop® automatic dispenser. […] 4) The data were analyzed.

[3] = RSV long CPE assay, CC50 (in vitro toxicity); type: cell-based; conditions: human; Hep2 cells, 5 days, CCK-8 readout, n = 7
Procedure: as §1

[4] = Solid physical stability of crystal form A under different temperature and humidity conditions; type: physicochemical; conditions: 10th day
Procedure: The X-Ray Powder Diffraction method is as follows: Instrument: Bruker D8 ADVANCE X-Ray diffractometer; Target: Cu: K-Alpha; Wavelength λ=1.54179 Å; Tube Voltage: 40 kV; Tube Current: 40 mA; Scanning scope: 4-40°; Sample Rotation speed: 15 rpm; Scanning speed: 10°/min. […] On the tenth day, all samples were removed and returned to room temperature. The appearance changes of samples were observed, and the crystal form of samples was detected by XRPD.

[5] = Stability experiment of crystal form A in different solvents (XRPD); type: physicochemical; conditions: 2 days
Procedure: The X-Ray Powder Diffraction method is as follows:
Instrument: Bruker D8 ADVANCE X-Ray diffractometer; Target: Cu: K-Alpha; Wavelength λ=1.54179 Å; Tube Voltage: 40 kV; Tube Current: 40 mA; Scanning scope: 4-40°; Sample Rotation speed: 15 rpm; Scanning speed: 10°/min.
The mixture was stirred at 40° C. If the compound was completely dissolved, the sample was allowed to cool to room temperature, and if the solid was precipitated, the mixture was continued to stir; and if the sample remained in solution, the solvent was naturally evaporated to remove. After all the suspensions were stirred for 2 days, the solids in all samples were collected and XRPD was used to detect the crystal form state.

[6] = Approximate solubility test of crystal form A; type: physicochemical; conditions: thermodynamic from solid, room temperature (20 to 30° C.)
[7] = 0 day (−20° C. Sealed Storage) (Control Sample)
[8] = 25° C./92.5% Relative Humidity (Open)
[9] = 60° C./75% Relative Humidity (Open)

For `CC(C)C(=O)N1CC2(C1)C(=O)N(Cc1nc3c(n1CCCC(F)(F)F)CCCC3)c1ccccc12` [Compound of formula (I), 1-Isobutyryl-1′-((1-(4,4,4-trifluorobutyl)-4,5,6,7-tetrahydro-1H-benzo[d]imidazol-2-yl)methyl)spiro[azetidine-3,3′-indolin]-2′-one], the “activity in vitro compared with BMS433771” value ([1]; conclusion from the CPE assay) was “better activity in vitro”, the EC50 ([1]; human respiratory syncytial virus, HEp-2, 120 h, Hep2 cells, RSV A long strain, 5 days, CCK-8 readout, n = 7, read-out: CPE assay EC50) was 7 nM and the cytotoxicity [2] was “no cytotoxicity”. The CC50 at 5 days [3] was > 100000 nM.
For `CC(C)C(=O)N1CC2(C1)C(=O)N(Cc1nc3c(n1CCCC(F)(F)F)CCCC3)c1ccccc12` [Crystal Form A, 1-Isobutyryl-1′-((1-(4,4,4-trifluorobutyl)-4,5,6,7-tetrahydro-1H-benzo[d]imidazol-2-yl)methyl)spiro[azetidine-3,3′-indolin]-2′-one], the Character [4, 7] was “White Powder”, the “Crystal Form” value [4, 7] was “Crystal Form A” and the Character [4, 8] was “White Powder”. The “Crystal Form” value [4, 8] was “Crystal Form A”, the Character ([4]; 60° C. (Open)) was “White Powder” and the “Crystal Form” value ([4]; 60° C. (Open)) was “Crystal Form A”. For the same compound, the Character [4, 9] was “White Powder”, the “Crystal Form” value [4, 9] was “Crystal Form A” and the “Result (crystal form by XRPD)” value ([5]; 2-Methyltetrahydrofuran, stirred at 40° C.) was “Crystal Form A”. For the same compound, the “Result (crystal form by XRPD)” value ([5]; Acetone, stirred at 40° C.) was “Crystal Form A”, the “Result (crystal form by XRPD)” value ([5]; Acetone:water = 1:2, stirred at 40° C.) was “Crystal Form B” and the “Result (crystal form by XRPD)” value ([5]; Dioxane, stirred at 40° C.) was “Crystal Form A”. For the same compound, the “Result (crystal form by XRPD)” value ([5]; Ethanol, stirred at 40° C.) was “Crystal Form A”, the “Result (crystal form by XRPD)” value ([5]; Ethanol:water = 3:1, stirred at 40° C.) was “Crystal Form B” and the “Result (crystal form by XRPD)” value ([5]; Ethyl acetate, stirred at 40° C.) was “Crystal Form A”. For the same compound, the “Result (crystal form by XRPD)” value ([5]; Methanol:water = 3:1, stirred at 40° C.) was “Crystal Form A”, the “Result (crystal form by XRPD)” value ([5]; Toluene, stirred at 40° C.) was “Crystal Form A” and the solubility ([6]; acetone-water (1:2), aqueous with cosolvent or surfactant or cyclodextrin, Acetone-H2O (1:2)) was < 2 mg/mL. The solubility ([6]; acetonitrile-water (1:1), aqueous with cosolvent or surfactant or cyclodextrin, Acetonitrile-H2O (1:1)) was 46 to 58 mg/mL (≈ 94.2 to 119 mM), the solubility ([6]; ethanol-water (1:1), aqueous with cosolvent or surfactant or cyclodextrin, Ethanol-H2O (1:1)) was 2 to 2.7 mg/mL (≈ 4.09 to 5.53 mM) and the solubility ([6]; ethanol-water (3:1), aqueous with cosolvent or surfactant or cyclodextrin, Ethanol-H2O (3:1)) was 22 to 24.5 mg/mL (≈ 45 to 50.1 mM). For the same compound, the solubility ([6]; isopropanol-water (1:1), aqueous with cosolvent or surfactant or cyclodextrin, Isopropanol-H2O (1:1)) was 2.5 to 3 mg/mL (≈ 5.12 to 6.14 mM), the solubility ([6]; methanol-water (1:1), aqueous with cosolvent or surfactant or cyclodextrin, Methanol-H2O (1:1)) was < 2 mg/mL and the solubility ([6]; methanol-water (3:1), aqueous with cosolvent or surfactant or cyclodextrin, Methanol-H2O (3:1)) was 45 to 56.5 mg/mL (≈ 92.1 to 116 mM). The solubility ([6]; organic solvent or mixture, 2-Butanone) was 56.9 to 75.8 mg/mL (≈ 116 to 155 mM), the solubility ([6]; organic solvent or mixture, 2-Methyltetrahydrofuran) was 45 to 56.7 mg/mL (≈ 92.1 to 116 mM) and the solubility ([6]; organic solvent or mixture, Acetone) was 45.9 to 57.4 mg/mL (≈ 94 to 117 mM). For the same compound, the solubility ([6]; organic solvent or mixture, Acetonitrile) was 42 to 53.6 mg/mL (≈ 86 to 110 mM), the solubility ([6]; organic solvent or mixture, Cyclohexane) was < 2 mg/mL and the solubility ([6]; organic solvent or mixture, Dioxane) was 45 to 56.5 mg/mL (≈ 92.1 to 116 mM). It also gave a solubility ([6]; organic solvent or mixture, Ethanol) of 42 to 52.5 mg/mL (≈ 86 to 107 mM), a solubility ([6]; organic solvent or mixture, Ethyl acetate) of 29 to 34 mg/mL (≈ 59.4 to 69.6 mM) and a solubility ([6]; organic solvent or mixture, Isopropanol) of 13.9 to 20.9 mg/mL (≈ 28.5 to 42.8 mM). The solubility ([6]; organic solvent or mixture, Isopropyl acetate) was 18 to 20.5 mg/mL (≈ 36.8 to 42 mM), the solubility ([6]; organic solvent or mixture, Methanol) was 115 to 231 mg/mL (≈ 235 to 473 mM) and the solubility ([6]; organic solvent or mixture, Methyl isobutyl ketone) was 22.9 to 25.5 mg/mL (≈ 46.9 to 52.2 mM). It also gave a solubility ([6]; organic solvent or mixture, Methyl tert-butyl ether) of 3 to 3.7 mg/mL (≈ 6.14 to 7.57 mM), a solubility ([6]; organic solvent or mixture, Tetrahydrofuran) of 113 to 226 mg/mL (≈ 231 to 463 mM) and a solubility ([6]; organic solvent or mixture, Toluene) of 28 to 32.5 mg/mL (≈ 57.3 to 66.5 mM). For the same compound, the solubility ([6]; organic solvent or mixture, n-Butyl alcohol) was 25.9 to 29.5 mg/mL (≈ 53 to 60.4 mM), the solubility ([6]; organic solvent or mixture, n-Heptane) was < 2 mg/mL and the solubility ([6]; water, H2O) was < 2 mg/mL.
